Reference: the supplement of paper PMC10307832

How the values were obtained:
Test in all cases: relative viability (nuclei count vs DMSO), 5 days (fraction); higher = more cells survive
NCI-H522 = test system: NCI-H522
Summary of the method: (§1)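 Lung cancer cell lines were pin-tool dosed in 1536-well plates on the day after seeding, with either a lone drug or a fixed anchor-drug dose plus five library-drug doses (not always all listed) in √10 steps. Nuclei were counted on 4× images after 5 days. Relative viability is the ratio of treated-well to vehicle-well nuclei counts, with each value a median of duplicate plates.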

NCI-H1355 = test system: NCI-H1355
Summary of the method: as §1

NCI-H1648 = test system: NCI-H1648
Summary of the method: as §1

NCI-H1703 = test system: NCI-H1703
Summary of the method: as §1

LCLC-103H = test system: LCLC-103H
Summary of the method: as §1

NCI-H520 = test system: NCI-H520
Summary of the method: as §1

A549 = test system: A549
Summary of the method: as §1

Which results are given for `CC1(C)CCC(c2ccc(Cl)cc2)=C(CN2CCN(c3ccc(C(=O)NS(=O)(=O)c4ccc(N[C@H](CCN5CCOCC5)CSc5ccccc5)c(S(=O)(=O)C(F)(F)F)c4)cc3)CC2)C1` [Navitoclax] + NC(=O)Nc1cc(-c2cccc(F)c2)sc1C(=O)N[C@H]1CCCNC1 [AZD7762] (partner 0.2 µM)?
relative viability (NCI-H522; first compound 0.005 µM): 0.748; relative viability (NCI-H522; first compound 0.01581 µM): 0.987; relative viability (NCI-H522; first compound 0.05 µM): 1.12; relative viability (NCI-H522; first compound 0.1581 µM): 0.832; relative viability (NCI-H522; first compound 0.5 µM): 0.9; relative viability (NCI-H1355; first compound 0.005 µM): 0.745; relative viability (NCI-H1355; first compound 0.01581 µM): 0.728; relative viability (NCI-H1355; first compound 0.05 µM): 0.588; relative viability (NCI-H1355; first compound 0.1581 µM): 0.735; relative viability (NCI-H1355; first compound 0.5 µM): 0.668; relative viability (NCI-H1648; first compound 0.005 µM): 0.799; relative viability (NCI-H1648; first compound 0.01581 µM): 0.669; relative viability (NCI-H1648; first compound 0.1581 µM): 0.667; relative viability (NCI-H1648; first compound 0.5 µM): 0.604; relative viability (NCI-H1703; first compound 0.005 µM): 0.128; relative viability (NCI-H1703; first compound 0.01581 µM): 0.161; relative viability (NCI-H1703; first compound 0.05 µM): 0.149; relative viability (NCI-H1703; first compound 0.5 µM): 0.122; relative viability (LCLC-103H; first compound 0.005 µM): 0.806; relative viability (LCLC-103H; first compound 0.01581 µM): 0.839; relative viability (LCLC-103H; first compound 0.05 µM): 0.736; relative viability (LCLC-103H; first compound 0.1581 µM): 0.826; relative viability (LCLC-103H; first compound 0.5 µM): 0.8

Which relative viability (NCI-H522; first compound 0.04 µM) does the source give for `O=C(O)c1ccc(-c2c[nH]c3ncc(-c4ccccc4)cc23)cc1C1CCCC1` + Nc1ncn([C@H]2C[C@H](O)[C@@H](CO)O2)c(=O)n1 [Decitabine] (partner 2 µM) here?
The relative viability was 0.662.

What about the relative viability (NCI-H522; first compound 0.1265 µM) of the same molecule?
Its relative viability is 0.593.

What about the relative viability (NCI-H522; first compound 0.4 µM) of the same molecule?
Its relative viability is 0.591.

And the relative viability (NCI-H522; first compound 1.265 µM)?
The relative viability was 0.602.

And the relative viability (NCI-H520; first compound 0.04 µM)?
Its relative viability is 0.493.

What about the relative viability (NCI-H520; first compound 0.1265 µM) of the same molecule?
Its relative viability is 0.489.

And the relative viability (NCI-H520; first compound 0.4 µM)?
Its relative viability is 0.5.

What about the relative viability (NCI-H520; first compound 1.265 µM) of the same molecule?
The relative viability was 0.358.

What about the relative viability (NCI-H1355; first compound 0.04 µM) of the same molecule?
The relative viability was 0.337.

What about the relative viability (NCI-H1355; first compound 0.1265 µM) of the same molecule?
Its relative viability is 0.331.

And the relative viability (NCI-H1355; first compound 0.4 µM)?
The relative viability was 0.408.

And the relative viability (NCI-H1355; first compound 1.265 µM)?
The relative viability was 0.307.

And the relative viability (NCI-H1648; first compound 0.04 µM)?
Its relative viability is 0.587.

And the relative viability (NCI-H1648; first compound 0.1265 µM)?
The relative viability was 0.599.

And the relative viability (NCI-H1648; first compound 0.4 µM)?
Its relative viability is 0.569.

What about the relative viability (A549; first compound 0.04 µM) of the same molecule?
Its relative viability is 0.291.

And the relative viability (A549; first compound 0.1265 µM)?
The relative viability was 0.265.

And the relative viability (A549; first compound 0.4 µM)?
The relative viability was 0.277.

And the relative viability (A549; first compound 1.265 µM)?
The relative viability was 0.251.

What about the relative viability (LCLC-103H; first compound 0.04 µM) of the same molecule?
The relative viability was 0.767.

What about the relative viability (LCLC-103H; first compound 0.1265 µM) of the same molecule?
Its relative viability is 0.789.

What about the relative viability (LCLC-103H; first compound 0.4 µM) of the same molecule?
Its relative viability is 0.746.

What about the relative viability (LCLC-103H; first compound 1.265 µM) of the same molecule?
Its relative viability is 0.667.

Which results are given for `CC1(C)CCC(c2ccc(Cl)cc2)=C(CN2CCN(c3ccc(C(=O)NS(=O)(=O)c4ccc(N[C@H](CCN5CCOCC5)CSc5ccccc5)c(S(=O)(=O)C(F)(F)F)c4)cc3)CC2)C1` [Navitoclax] + Nc1ncn([C@H]2C[C@H](O)[C@@H](CO)O2)c(=O)n1 [Decitabine] (partner 2 µM)?
relative viability (NCI-H522; first compound 0.005 µM): 0.685; relative viability (NCI-H522; first compound 0.01581 µM): 0.696; relative viability (NCI-H522; first compound 0.05 µM): 0.699; relative viability (NCI-H522; first compound 0.1581 µM): 0.547; relative viability (NCI-H522; first compound 0.5 µM): 0.712; relative viability (NCI-H520; first compound 0.005 µM): 0.432; relative viability (NCI-H520; first compound 0.01581 µM): 0.48; relative viability (NCI-H520; first compound 0.05 µM): 0.423; relative viability (NCI-H520; first compound 0.1581 µM): 0.487; relative viability (NCI-H520; first compound 0.5 µM): 0.489; relative viability (NCI-H1355; first compound 0.005 µM): 0.338; relative viability (NCI-H1355; first compound 0.01581 µM): 0.372; relative viability (NCI-H1355; first compound 0.05 µM): 0.369; relative viability (NCI-H1355; first compound 0.1581 µM): 0.355; relative viability (NCI-H1355; first compound 0.5 µM): 0.347; relative viability (NCI-H1648; first compound 0.005 µM): 0.528; relative viability (NCI-H1648; first compound 0.01581 µM): 0.511; relative viability (NCI-H1648; first compound 0.1581 µM): 0.518; relative viability (NCI-H1648; first compound 0.5 µM): 0.44; relative viability (A549; first compound 0.005 µM): 0.252; relative viability (A549; first compound 0.01581 µM): 0.249; relative viability (A549; first compound 0.05 µM): 0.204; relative viability (A549; first compound 0.1581 µM): 0.271; relative viability (A549; first compound 0.5 µM): 0.246; relative viability (LCLC-103H; first compound 0.005 µM): 0.701; relative viability (LCLC-103H; first compound 0.01581 µM): 0.879; relative viability (LCLC-103H; first compound 0.05 µM): 0.764; relative viability (LCLC-103H; first compound 0.1581 µM): 0.703; relative viability (LCLC-103H; first compound 0.5 µM): 0.698
